This assay has as its system HeLa. Kind of assay: Cytotoxicity against human HeLa cells after 48 hrs by MTT assay. Type of assay: functional, cell-based. Background: Tetrazolium dyes change colour on reduction, which living cells bring about.

In general, IC50 refers to the concentration that inhibits the measured activity by half. A low value points to greater potency.

Turning to `C[C@H](O)[C@H]1OC(=O)C[C@H]1O[C@H]1C=CC(=O)O[C@H]1C` [ANGIOPTERLACTONE A], the IC50 worked out at 68.8 µM.

The values above are taken from ChEMBL document CHEMBL1151948, “Lactones from Angiopteris caudatiformis” (J Nat Prod, 2009).
